{"source": "ChEMBL document CHEMBL1138625", "about": "“Synthesis and evaluation of novel phenoxypropanolamine derivatives containing acetanilides as potent and selective beta3-adrenergic receptor agonists” (Bioorg Med Chem, 2009)", "key": {"[1]": {"target": "Beta-3 adrenergic receptor (Homo sapiens) (UniProt P13945)", "sequence (P13945 whole entry, looked up)": "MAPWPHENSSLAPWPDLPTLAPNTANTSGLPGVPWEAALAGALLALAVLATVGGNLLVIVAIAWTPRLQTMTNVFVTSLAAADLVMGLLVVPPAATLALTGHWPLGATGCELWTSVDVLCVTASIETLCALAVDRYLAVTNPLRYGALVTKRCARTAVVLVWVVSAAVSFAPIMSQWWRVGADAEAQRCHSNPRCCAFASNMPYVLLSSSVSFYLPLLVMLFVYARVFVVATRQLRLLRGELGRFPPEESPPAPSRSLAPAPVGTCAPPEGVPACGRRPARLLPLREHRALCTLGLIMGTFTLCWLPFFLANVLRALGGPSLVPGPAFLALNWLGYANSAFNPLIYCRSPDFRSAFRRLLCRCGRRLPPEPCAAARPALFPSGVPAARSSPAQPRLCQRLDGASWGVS"}, "[2]": {"target": "Beta-1 adrenergic receptor (Homo sapiens) (UniProt P08588)", "test": "Agonist activity at human adrenergic receptor expressed in CHO cells assessed as cAMP accumulation"}, "[3]": {"target": "Beta-2 adrenergic receptor (Homo sapiens, UniProt P07550)", "sequence (P07550 whole entry)": "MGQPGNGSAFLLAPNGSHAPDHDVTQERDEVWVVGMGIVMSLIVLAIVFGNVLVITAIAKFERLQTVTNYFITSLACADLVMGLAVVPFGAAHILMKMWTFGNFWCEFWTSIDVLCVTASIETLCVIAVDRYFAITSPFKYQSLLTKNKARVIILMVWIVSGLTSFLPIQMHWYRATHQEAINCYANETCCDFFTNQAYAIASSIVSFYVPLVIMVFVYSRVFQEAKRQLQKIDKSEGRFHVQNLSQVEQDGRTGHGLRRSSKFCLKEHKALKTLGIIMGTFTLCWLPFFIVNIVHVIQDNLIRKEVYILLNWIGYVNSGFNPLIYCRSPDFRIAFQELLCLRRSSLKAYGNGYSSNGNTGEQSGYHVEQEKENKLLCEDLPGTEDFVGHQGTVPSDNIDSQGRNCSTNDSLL", "description": "Agonist activity at human beta2 adrenergic receptor expressed in CHO cells assessed as cAMP accumulation"}, "[4]": {"target": "Beta-1 adrenergic receptor (Homo sapiens) (UniProt P08588)", "settings": "CHO"}, "Mus musculus": {"tested_on": "Mus musculus", "test": "Hypoglycemic activity in diabetic kk mouse assessed as reduction in plasma glucose level at 30 mg/kg, po administered once daily for 4 days by colorimetry", "type": "functional", "set-up": "scale not given: the % may be the effect or the level left"}, "[5]": {"test": "Oral bioavailability in rat", "type": "ADME, organism-based", "settings": "in vivo"}}}
{"smiles": "O=C(Cc1ccccn1)Nc1ccc(CCNC[C@H](O)COc2cccc3[nH]ccc23)cc1", "values": [{"measurement": "EC50", "setting": "[1]", "value": 1300, "unit": "nM"}, {"measurement": "EC50", "setting": "[2]", "value": "> 100000", "unit": "nM"}, {"measurement": "EC50", "setting": "[3]", "value": "> 100000", "unit": "nM"}, {"measurement": "Intrinsic activity", "setting": "[4]", "value": 0}]}
{"smiles": "CC(Cc1ccc(NC(=O)Cc2nccn2Cc2ccccc2)cc1)NC[C@H](O)COc1ccccc1", "note": "(stereo in doubt; 27b)", "values": [{"measurement": "EC50", "setting": "[3]", "value": "> 100000", "unit": "nM"}]}
{"smiles": "O=C(Cc1nccn1-c1ccccc1)Nc1ccc(CCNC[C@H](O)COc2ccccc2)cc1", "values": [{"measurement": "EC50", "setting": "[3]", "value": "> 100000", "unit": "nM"}]}
{"smiles": "CN(C(=O)Cc1nccn1Cc1ccccc1)c1ccc(CCNC[C@H](O)COc2ccccc2)cc1", "values": [{"measurement": "Activity", "setting": "Mus musculus", "value": 38, "unit": "%"}, {"measurement": "EC50", "setting": "[1]", "value": 280, "unit": "nM"}, {"measurement": "EC50", "setting": "[2]", "value": "> 100000", "unit": "nM"}, {"measurement": "EC50", "setting": "[3]", "value": "> 100000", "unit": "nM"}, {"measurement": "Intrinsic activity", "setting": "[4]", "value": 0.04}]}
{"smiles": "O=C(Cc1ccccn1)Nc1ccc(CCNC[C@H](O)COc2ccc(O)cc2)cc1", "values": [{"measurement": "EC50", "setting": "[1]", "value": 290, "unit": "nM"}, {"measurement": "EC50", "setting": "[2]", "value": 2700, "unit": "nM"}, {"measurement": "EC50", "setting": "[3]", "value": "> 100000", "unit": "nM"}, {"measurement": "bioavailability", "setting": "[5]", "value": 2, "unit": "%"}, {"measurement": "Intrinsic activity", "setting": "[4]", "value": 0.14}]}
{"smiles": "O=C(Cc1cccc(Cl)n1)Nc1ccc(CCNC[C@H](O)COc2ccccc2)cc1", "values": [{"measurement": "EC50", "setting": "[3]", "value": "> 100000", "unit": "nM"}]}
{"smiles": "O=C(Cc1cn(Cc2ccccc2)cn1)Nc1ccc(CCNC[C@H](O)COc2ccccc2)cc1", "values": [{"measurement": "EC50", "setting": "[3]", "value": "> 100000", "unit": "nM"}]}
{"smiles": "O=C(Cc1nccn1Cc1ccccc1)N1CCCc2cc(CCNC[C@H](O)COc3ccccc3)ccc21", "values": [{"measurement": "EC50", "setting": "[3]", "value": "> 100000", "unit": "nM"}]}
{"smiles": "O=C(Cc1nccn1Cc1ccc2ccccc2c1)Nc1ccc(CCNC[C@H](O)COc2ccccc2)cc1", "values": [{"measurement": "EC50", "setting": "[3]", "value": "> 100000", "unit": "nM"}]}
{"smiles": "O=C(Cc1nccn1Cc1ccc(Br)cc1)Nc1ccc(CCNC[C@H](O)COc2ccccc2)cc1", "values": [{"measurement": "EC50", "setting": "[1]", "value": 190, "unit": "nM"}, {"measurement": "EC50", "setting": "[2]", "value": 71, "unit": "nM"}, {"measurement": "EC50", "setting": "[3]", "value": "> 100000", "unit": "nM"}, {"measurement": "Intrinsic activity", "setting": "[4]", "value": 0.3}]}
{"smiles": "CC(Cc1ccc(NC(=O)Cc2nccn2Cc2ccccc2)cc1)NC[C@H](O)COc1ccccc1", "note": "(single isomer, unassigned; diastereomer I)", "values": [{"measurement": "EC50", "setting": "[3]", "value": 27, "unit": "nM"}]}
{"smiles": "O=C(Cc1nccn1Cc1ccccc1)Nc1ccc(CCNC[C@H](O)COc2ccccc2)cc1", "values": [{"measurement": "Activity", "setting": "Mus musculus", "value": 43, "unit": "%"}, {"measurement": "EC50", "setting": "[1]", "value": 180, "unit": "nM"}, {"measurement": "EC50", "setting": "[2]", "value": 130, "unit": "nM"}, {"measurement": "EC50", "setting": "[3]", "value": "> 100000", "unit": "nM"}, {"measurement": "Intrinsic activity", "setting": "[4]", "value": 0.2}]}
{"smiles": "CCCN(C(=O)Cc1nccn1Cc1ccccc1)c1ccc(CCNC[C@H](O)COc2ccccc2)cc1", "values": [{"measurement": "EC50", "setting": "[1]", "value": 500, "unit": "nM"}, {"measurement": "EC50", "setting": "[2]", "value": "> 100000", "unit": "nM"}, {"measurement": "EC50", "setting": "[3]", "value": "> 100000", "unit": "nM"}, {"measurement": "Intrinsic activity", "setting": "[4]", "value": 0.01}]}
{"smiles": "Cc1cccnc1CC(=O)Nc1ccc(CCNC[C@H](O)COc2ccccc2)cc1", "values": [{"measurement": "EC50", "setting": "[1]", "value": 330, "unit": "nM"}, {"measurement": "EC50", "setting": "[2]", "value": 390, "unit": "nM"}, {"measurement": "EC50", "setting": "[3]", "value": "> 100000", "unit": "nM"}, {"measurement": "Intrinsic activity", "setting": "[4]", "value": 0.18}]}
{"smiles": "O=C(Cc1ccccn1)Nc1ccc(CCNC[C@H](O)COc2cccc3[nH]c(=O)[nH]c23)cc1", "values": [{"measurement": "EC50", "setting": "[3]", "value": "> 100000", "unit": "nM"}]}
{"smiles": "Cc1cc(C)nc(CC(=O)Nc2ccc(CCNC[C@H](O)COc3ccccc3)cc2)c1", "values": [{"measurement": "EC50", "setting": "[1]", "value": 280, "unit": "nM"}, {"measurement": "EC50", "setting": "[2]", "value": 310, "unit": "nM"}, {"measurement": "EC50", "setting": "[3]", "value": "> 100000", "unit": "nM"}, {"measurement": "Intrinsic activity", "setting": "[4]", "value": 0.17}]}
{"smiles": "O=C(Cc1nc2ccccc2n1Cc1ccccc1)Nc1ccc(CCNC[C@H](O)COc2ccccc2)cc1", "values": [{"measurement": "EC50", "setting": "[3]", "value": "> 100000", "unit": "nM"}]}
{"smiles": "O=C(Cc1ncc[nH]1)Nc1ccc(CCNC[C@H](O)COc2ccccc2)cc1", "values": [{"measurement": "EC50", "setting": "[1]", "value": 9600, "unit": "nM"}, {"measurement": "EC50", "setting": "[2]", "value": 510, "unit": "nM"}, {"measurement": "EC50", "setting": "[3]", "value": "> 100000", "unit": "nM"}, {"measurement": "Intrinsic activity", "setting": "[4]", "value": 0.26}]}
{"smiles": "O=C(Cc1nccn1Cc1ccc(Cl)cc1)Nc1ccc(CCNC[C@H](O)COc2ccccc2)cc1", "values": [{"measurement": "EC50", "setting": "[1]", "value": 270, "unit": "nM"}, {"measurement": "EC50", "setting": "[2]", "value": 74, "unit": "nM"}, {"measurement": "EC50", "setting": "[3]", "value": "> 100000", "unit": "nM"}, {"measurement": "Intrinsic activity", "setting": "[4]", "value": 0.13}]}
{"smiles": "CS(=O)(=O)Nc1ccc(OC[C@@H](O)CNCCc2ccc(NC(=O)Cc3ccccn3)cc2)cc1", "values": [{"measurement": "EC50", "setting": "[1]", "value": "> 100000", "unit": "nM"}, {"measurement": "EC50", "setting": "[2]", "value": "> 100000", "unit": "nM"}, {"measurement": "EC50", "setting": "[3]", "value": "> 100000", "unit": "nM"}, {"measurement": "Intrinsic activity", "setting": "[4]", "value": 0.01}]}
{"smiles": "O=C(Cc1ccccn1)Nc1ccc(CCNC[C@H](O)COc2cccc3[nH]c4ccccc4c23)cc1", "values": [{"measurement": "EC50", "setting": "[3]", "value": "> 100000", "unit": "nM"}]}
{"smiles": "O=C(Cc1ccccn1)Nc1ccc(CCNC[C@H](O)COc2cccnc2)cc1", "values": [{"measurement": "EC50", "setting": "[3]", "value": "> 100000", "unit": "nM"}]}
{"smiles": "O=C(Cc1cccc(OCc2ccccc2)n1)Nc1ccc(CCNC[C@H](O)COc2ccccc2)cc1", "values": [{"measurement": "EC50", "setting": "[1]", "value": 2500, "unit": "nM"}, {"measurement": "EC50", "setting": "[2]", "value": 200, "unit": "nM"}, {"measurement": "EC50", "setting": "[3]", "value": "> 100000", "unit": "nM"}, {"measurement": "Intrinsic activity", "setting": "[4]", "value": 0.12}]}
{"smiles": "O=C(Cc1ccccn1)Nc1ccc(CCNC[C@H](O)COc2ccccc2)cc1", "values": [{"measurement": "EC50", "setting": "[1]", "value": 120000, "unit": "nM"}, {"measurement": "EC50", "setting": "[2]", "value": "> 100000", "unit": "nM"}, {"measurement": "EC50", "setting": "[3]", "value": "> 100000", "unit": "nM"}, {"measurement": "bioavailability", "setting": "[5]", "value": 27, "unit": "%"}, {"measurement": "Intrinsic activity", "setting": "[4]", "value": 0.11}]}
